Data taken from patent US20240217989A1, “Heteroaryl Fluoroalkenes As DGK Inhibitors” (Incyte Corporation, priority 2022, published 2024).

What was measured:
DGKα = biological target: T1, DGKα (Homo sapiens, UniProt P23743); assay: In vitro DGKα inhibition assay (ADP-Glo); assay type: biochemical; conditions: His-tagged human recombinant enzyme; 0.1 nM DGKα, 50 μM ATP, 20 μM DLG; 90 minute incubation; ADP-Glo luminescence
T1 construct: His; purchased Signal Chem D21-10BH
Experimental: (§1) The DGKα and DGKζ biochemical reactions were performed using His-tagged human recombinant enzymes (Signal Chem, DGKα, #D21-10BH; DGKζ, #D30-10H)) and DLG (Dilauroyl-sn-glycerol) lipid substrate (Signal Chem, #D430-59). ADP-Glo assay was performed using ADP-Glo™ kinase Assay kit (Promega, #V9104). The reactions were carried out in assay buffer containing 40 mM Tris, pH 7.5, 0.1% CHAPS, 0.1% Prionex, 40 mM NaCl, 5 mM MgCl2, 1 mM CaCl2, and 1 mM DTT. DGKα reactions contained 0.1 nM DGKα, 50 μM ATP, and 20 μM DLG. And DGKζ reactions contained 0.4 nM DGKζ, 30 μM ATP, and 20 μM DLG. For compound inhibition studies, 40 nL test compound in DMSO was added to wells of white polystyrene plates in 384-well (Greiner, #784075) or 1536-well format (Greiner, #782075). Compounds were added with top concentration of 2 mM with 11 point, 3-fold dilution series. Enzyme solution (contains 2× DGK enzyme concentration in 1× assay buffer) was added to the plate in 2 μL/well volume, followed by 2 μL/well of substrate solution (contains 2× concentration of ATP and DLG substrate in 1× assay buffer). Plates were then centrifuged for 1 min at 1200 RPM and sealed or lidded. For 4 μL reaction volume, test compounds were therefore diluted 100× to final top concentration of 20 μM. After 90 minute incubation, reactions were quenched by addition of 2 μL/well Promega ADP-Glo Reagent, followed by centrifugation and lidding. After 60 min incubation, 2 μL/well Promega Kinase Detection Reagent was added, plates centrifuged, and incubated for 30 min. Plates were then read using Luminescence method on BMG PHERAstar FSX plate reader. Percent inhibition was calculated and IC50s were determined using 4-parameter fit in Genedata Screener. Labcyte Echo acoustic dispenser was used for compound addition, and Formulatrix Tempest liquid handler was used for all reagent dispenses.

DGKζ = DGKζ (Homo sapiens, UniProt Q13574); assay: In vitro DGKζ inhibition assay (ADP-Glo); assay type: biochemical; conditions: His-tagged human recombinant enzyme; 0.4 nM DGKζ, 30 μM ATP, 20 μM DLG; 90 minute incubation; ADP-Glo luminescence
Experimental: as §1

T1 sequence (P23743 whole entry): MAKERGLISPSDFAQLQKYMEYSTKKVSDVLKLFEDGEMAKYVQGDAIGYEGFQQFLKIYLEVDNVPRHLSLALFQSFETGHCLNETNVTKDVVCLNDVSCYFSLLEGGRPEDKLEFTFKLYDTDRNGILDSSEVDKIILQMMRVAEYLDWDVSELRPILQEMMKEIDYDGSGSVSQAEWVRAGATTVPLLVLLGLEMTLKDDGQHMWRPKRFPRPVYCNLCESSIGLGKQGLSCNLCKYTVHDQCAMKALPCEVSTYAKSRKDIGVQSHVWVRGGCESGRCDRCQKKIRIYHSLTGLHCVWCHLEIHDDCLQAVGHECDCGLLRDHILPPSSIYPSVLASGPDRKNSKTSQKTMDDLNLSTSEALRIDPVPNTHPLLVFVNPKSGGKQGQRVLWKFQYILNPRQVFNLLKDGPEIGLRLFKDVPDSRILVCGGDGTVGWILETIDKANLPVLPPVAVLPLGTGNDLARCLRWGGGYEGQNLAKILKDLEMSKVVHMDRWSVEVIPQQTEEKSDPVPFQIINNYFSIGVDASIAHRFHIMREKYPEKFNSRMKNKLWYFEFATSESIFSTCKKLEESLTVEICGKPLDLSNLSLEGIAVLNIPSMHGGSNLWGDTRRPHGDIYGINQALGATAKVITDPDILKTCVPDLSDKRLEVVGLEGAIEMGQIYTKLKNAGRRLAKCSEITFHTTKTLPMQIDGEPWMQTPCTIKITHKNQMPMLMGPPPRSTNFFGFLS
Chain of DGKζ (Q13574 whole entry): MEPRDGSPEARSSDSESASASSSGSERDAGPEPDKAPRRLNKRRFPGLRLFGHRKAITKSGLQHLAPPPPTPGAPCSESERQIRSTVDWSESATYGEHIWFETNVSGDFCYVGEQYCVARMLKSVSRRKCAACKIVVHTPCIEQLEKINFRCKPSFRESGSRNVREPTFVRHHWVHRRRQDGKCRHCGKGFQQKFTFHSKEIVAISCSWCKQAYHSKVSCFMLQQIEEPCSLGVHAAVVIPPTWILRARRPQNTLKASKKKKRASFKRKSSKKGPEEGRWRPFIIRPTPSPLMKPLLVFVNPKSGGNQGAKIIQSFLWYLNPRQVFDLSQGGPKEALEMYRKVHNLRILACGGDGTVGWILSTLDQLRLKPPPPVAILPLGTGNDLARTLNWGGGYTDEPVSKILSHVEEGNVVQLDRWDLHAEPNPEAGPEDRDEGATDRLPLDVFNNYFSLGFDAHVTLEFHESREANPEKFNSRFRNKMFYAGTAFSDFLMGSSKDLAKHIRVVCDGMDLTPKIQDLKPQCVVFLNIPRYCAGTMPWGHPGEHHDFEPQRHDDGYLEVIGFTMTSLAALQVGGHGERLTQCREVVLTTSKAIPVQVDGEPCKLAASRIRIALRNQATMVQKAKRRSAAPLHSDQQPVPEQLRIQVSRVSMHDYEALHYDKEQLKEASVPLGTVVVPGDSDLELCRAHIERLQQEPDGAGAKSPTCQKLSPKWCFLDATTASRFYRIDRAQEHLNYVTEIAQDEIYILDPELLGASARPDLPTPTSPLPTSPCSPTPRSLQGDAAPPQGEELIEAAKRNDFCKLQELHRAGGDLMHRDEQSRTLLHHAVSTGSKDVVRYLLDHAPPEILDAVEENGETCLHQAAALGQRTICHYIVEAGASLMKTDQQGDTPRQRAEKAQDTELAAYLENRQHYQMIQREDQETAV

Compound | IC50 (DGKα) [nM] | IC50 (DGKζ) [nM]
NC[C@@H]1CCCN(c2c(/C=C(\F)c3cc4nccnc4c(N4CC(F)(F)C4)n3)ccc(Oc3ccccc3F)c2C(F)(F)F)C1 [Example 1, (S,Z)-(1-(6-(2-(5-(3,3-Difluoroazetidin-1-yl)pyrido[3,4-b]pyrazin-7-yl)-2-fluorovinyl)-3-(2-fluorophenoxy)-2-(trifluoromethyl)phenyl)piperidin-3-yl)methanamine] | 20 to 200 | 20 to 200
NC[C@@H]1CCCN(c2c(/C=C(\F)c3cn4ccnc4c(N4CC(F)(F)C4)n3)ccc(Oc3ccccc3F)c2C(F)(F)F)C1 [Example 2, (S,Z)-(1-(6-(2-(8-(3,3-Difluoroazetidin-1-yl)imidazo[1,2-a]pyrazin-6-yl)-2-fluorovinyl)-3-(2-fluorophenoxy)-2-(trifluoromethyl)phenyl)piperidin-3-yl)methanamine] | ≤ 20 | ≤ 20
N#Cc1ncc(N2CC(F)(F)C2)nc1/C(F)=C/c1ccc(Oc2ccccc2F)c(C(F)(F)F)c1N1CCC[C@@H](CN)C1 [Example 3, (S,Z)-3-(2-(2-(3-(Aminomethyl)piperidin-1-yl)-4-(2-fluorophenoxy)-3-(trifluoromethyl)phenyl)-1-fluorovinyl)-5-(3,3-difluoroazetidin-1-yl)pyrazine-2-carbonitrile] | ≤ 20 | ≤ 20
NC[C@@H]1CCCN(c2c(/C=C(\F)c3cncc(-c4ccns4)n3)ccc(Oc3ccccc3F)c2C(F)(F)F)C1 [Example 4, (S,Z)-(1-(6-(2-Fluoro-2-(6-(isothiazol-5-yl)pyrazin-2-yl)vinyl)-3-(2-fluorophenoxy)-2-(trifluoromethyl)phenyl)piperidin-3-yl)methanamine] | – | ≤ 20
CN(CCCN)c1c(/C=C(\F)c2cccc(-c3ccnnc3)n2)ccc(Oc2ccccc2)c1C(F)(F)F [Example 5, (Z)-N1-(6-(2-Fluoro-2-(6-(pyridazin-4-yl)pyridin-2-yl)vinyl)-3-phenoxy-2-(trifluoromethyl)phenyl)-N1-methylpropane-1,3-diamine] | ≤ 20 | 20 to 200
COc1cc(F)ccc1Oc1ccc(/C=C(\F)c2nccc(-c3ccnnc3)n2)c(N2CCC[C@@H](CN)C2)c1Cl [Example 6, (S,Z)-(1-(2-Chloro-6-(2-fluoro-2-(4-(pyridazin-4-yl)pyrimidin-2-yl)vinyl)-3-(4-fluoro-2-methoxyphenoxy)phenyl)piperidin-3-yl)methanamine] | ≤ 20 | ≤ 20
COc1cc(F)ccc1Oc1ccc(/C=C(\F)c2ccnc(-c3ccnnc3)n2)c(N2CCC[C@@H](CN)C2)c1Cl [Example 7, (S,Z)-(1-(2-Chloro-6-(2-fluoro-2-(2-(pyridazin-4-yl)pyrimidin-4-yl)vinyl)-3-(4-fluoro-2-methoxyphenoxy)phenyl)piperidin-3-yl)methanamine] | ≤ 20 | ≤ 20
COc1cc(F)ccc1Oc1ccc(/C=C(\F)c2nncc(N3CCC(F)(F)C3)n2)c(N2CCC[C@@H](CN)C2)c1Cl [Example 8, (S,Z)-(1-(2-Chloro-6-(2-(5-(3,3-difluoropyrrolidin-1-yl)-1,2,4-triazin-3-yl)-2-fluorovinyl)-3-(4-fluoro-2-methoxyphenoxy)phenyl)piperidin-3-yl)methanamine] | ≤ 20 | ≤ 20
F/C(=C\c1ccc(Oc2ccccc2)c(C(F)(F)F)c1N1CCOC2(CCNCC2)C1)c1cncc(-c2ccnnc2)n1 [Example 9, (Z)-4-(6-(2-Fluoro-2-(6-(pyridazin-4-yl)pyrazin-2-yl)vinyl)-3-phenoxy-2-(trifluoromethyl)phenyl)-1-oxa-4,9-diazaspiro[5.5]undecane] | ≤ 20 | ≤ 20
F/C(=C\c1ccc(Oc2ccccc2)c(C(F)(F)F)c1N1CCOC2(CCN(CC3CC3)CC2)C1)c1cncc(-c2ccnnc2)n1 [Example 10, (Z)-9-(Cyclopropylmethyl)-4-(6-(2-fluoro-2-(6-(pyridazin-4-yl)pyrazin-2-yl)vinyl)-3-phenoxy-2-(trifluoromethyl)phenyl)-1-oxa-4,9-diazaspiro[5.5]undecane] | ≤ 20 | ≤ 20
COCCN1CCC2(CC1)CN(c1c(/C=C(\F)c3cncc(-c4ccnnc4)n3)ccc(Oc3ccccc3)c1C(F)(F)F)CCO2 [Example 11, (Z)-4-(6-(2-Fluoro-2-(6-(pyridazin-4-yl)pyrazin-2-yl)vinyl)-3-phenoxy-2-(trifluoromethyl)phenyl)-9-(2-methoxyethyl)-1-oxa-4,9-diazaspiro[5.5]undecane] | 20 to 200 | ≤ 20
NC[C@H]1CCCN1c1c(/C=C(\F)c2cncc(-c3ccnnc3)n2)ccc(Oc2ccccc2)c1Cl [Example 12, (R,Z)-(1-(2-Chloro-6-(2-fluoro-2-(6-(pyridazin-4-yl)pyrazin-2-yl)vinyl)-3-phenoxyphenyl)pyrrolidin-2-yl)methanamine] | – | ≤ 20
NC[C@H]1CCCN1c1c(/C=C(\F)c2nccc(-c3ccnnc3)n2)ccc(Oc2ccccc2)c1Cl [Example 13, (R,Z)-(1-(2-Chloro-6-(2-fluoro-2-(4-(pyridazin-4-yl)pyrimidin-2-yl)vinyl)-3-phenoxyphenyl)pyrrolidin-2-yl)methanamine] | ≤ 20 | ≤ 20
CCN1CCC2(CC1)CN(c1c(/C=C(\F)c3cncc(-c4ccnnc4)n3)ccc(OC3CC3)c1C(F)(F)F)CCO2 [Example 14, (Z)-4-(3-Cyclopropoxy-6-(2-fluoro-2-(6-(pyridazin-4-yl)pyrazin-2-yl)vinyl)-2-(trifluoromethyl)phenyl)-9-ethyl-1-oxa-4,9-diazaspiro[5.5]undecane] | 20 to 200 | 20 to 200
F/C(=C\c1ccc(Oc2ccccc2)c(C(F)(F)F)c1N1CCCC2(CCN(CC3CC3)CC2)C1)c1cncc(N2CC(F)(F)C2)n1 [Example 15, (Z)-9-(Cyclopropylmethyl)-2-(6-(2-(6-(3,3-difluoroazetidin-1-yl)pyrazin-2-yl)-2-fluorovinyl)-3-phenoxy-2-(trifluoromethyl)phenyl)-2,9-diazaspiro[5.5]undecane] | ≤ 20 | ≤ 20
CCN1CCC2(CCCN(c3c(/C=C(\F)c4cncc(N5CC(F)(F)C5)n4)ccc(Oc4ccccc4)c3C(F)(F)F)C2)CC1 [Example 16, (Z)-2-(6-(2-(6-(3,3-Difluoroazetidin-1-yl)pyrazin-2-yl)-2-fluorovinyl)-3-phenoxy-2-(trifluoromethyl)phenyl)-9-ethyl-2,9-diazaspiro[5.5]undecane] | 20 to 200 | ≤ 20
[2H]c1c([2H])c([2H])c(Oc2ccc(/C=C(\F)c3cncc(N4CC(F)(F)C4)n3)c(N3CCCC4(CCN(CC5CC5)CC4)C3)c2C(F)(F)F)c([2H])c1[2H] [Example 17, (Z)-9-(Cyclopropylmethyl)-2-(6-(2-(6-(3,3-difluoroazetidin-1-yl)pyrazin-2-yl)-2-fluorovinyl)-3-(phenoxy-d5)-2-(trifluoromethyl)phenyl)-2,9-diazaspiro[5.5]undecane] | ≤ 20 | ≤ 20
[2H]c1c([2H])c([2H])c(Oc2ccc(/C=C(\F)c3cncc(N4CC(F)(F)C4)n3)c(N3CCCC4(CCN(CC)CC4)C3)c2C(F)(F)F)c([2H])c1[2H] [Example 18, (Z)-2-(6-(2-(6-(3,3-Difluoroazetidin-1-yl)pyrazin-2-yl)-2-fluorovinyl)-3-(phenoxy-d5)-2-(trifluoromethyl)phenyl)-9-ethyl-2,9-diazaspiro[5.5]undecane] | ≤ 20 | ≤ 20
F/C(=C\c1ccc(Oc2ccccc2)c(C(F)(F)F)c1N1CCCC2(CCN(CC3CC3)CC2)C1)c1cncc(N2CCC(F)(F)C2)n1 [Example 19, (Z)-9-(Cyclopropylmethyl)-2-(6-(2-(6-(3,3-difluoropyrrolidin-1-yl)pyrazin-2-yl)-2-fluorovinyl)-3-phenoxy-2-(trifluoromethyl)phenyl)-2,9-diazaspiro[5.5]undecane] | ≤ 20 | ≤ 20
CCN1CCC2(CCCN(c3c(/C=C(\F)c4cncc(N5CCC(F)(F)C5)n4)ccc(Oc4ccccc4)c3C(F)(F)F)C2)CC1 [Example 20, (Z)-2-(6-(2-(6-(3,3-Difluoropyrrolidin-1-yl)pyrazin-2-yl)-2-fluorovinyl)-3-phenoxy-2-(trifluoromethyl)phenyl)-9-ethyl-2,9-diazaspiro[5.5]undecane] | ≤ 20 | ≤ 20
[2H]c1c([2H])c([2H])c(Oc2ccc(/C=C(\F)c3cncc(N4CCC(F)(F)C4)n3)c(N3CCCC4(CCN(CC5CC5)CC4)C3)c2C(F)(F)F)c([2H])c1[2H] [Example 21, (Z)-9-(Cyclopropylmethyl)-2-(6-(2-(6-(3,3-difluoropyrrolidin-1-yl)pyrazin-2-yl)-2-fluorovinyl)-3-(phenoxy-ds)-2-(trifluoromethyl)phenyl)-2,9-diazaspiro[5.5]undecane] | ≤ 20 | ≤ 20
